Experimental data reported in publication PMC2630805, “Anticancer Alkaloid Lamellarins Inhibit Protein Kinases” (Marine Drugs, 2008).
Like-named read-outs stand apart in the source and are kept apart here.

Columns and labels:
PIM 1 = PIM 1 (Homo sapiens, UniProt P11309); experiment: PIM1 kinase assay (histone H1); format: biochemical; conditions: 15 μM ATP; cell '− (x)' = no inhibitory activity detected, x = highest concentration tested; read-out: IC50 PIM 1
CK1 = CK1 kinase assay (CKS peptide); format: biochemical, porcine
Experimental: CK1 was purified from porcine brain by affinity chromatography on immobilized axin fragment. The mixture of native CK1 isoforms (essentially CK1δ and CK1ɛ) was assayed in three-fold diluted buffer C, using 25 μM CKS peptide, a CK1 selective substrate (RRKHAAIGpSAYSITA, synthesized by Millegen (Labège, France). Assays were performed for 30 min. at 30°C, as described for GSK-3.

HeLa cells = tested on: HeLa cells; design: method as in PMID 11975488; conditions: provided for comparison, ref [18]; cited from earlier work
GSK-3α/ß = experiment: GSK-3α/β kinase assay (GS-1 substrate); format: biochemical, porcine; conditions: 15 μM ATP; cell '− (x)' = no inhibitory activity detected, x = highest concentration tested
Description: GSK-3 α/β was purified from porcine brain by affinity chromatography on immobilized axin [39].

DYRK1A = DYRK1A (Rattus norvegicus, UniProt Q63470); experiment: DYRK1A kinase assay (myelin basic protein)
Experimental: (§1) Blank values were subtracted and activities calculated as pmoles of phosphate incorporated during a 30 min. incubation. The activities were expressed in % of the maximal activity, i.e. in the absence of inhibitors. Controls were performed with appropriate dilutions of dimethylsulfoxide. Unless otherwise stated, the P81 phosphocellulose assay was used.
DYRK1A was expressed as a GST fusion protein in E. coli (vector kindly provided by Dr. W. Becker, Institute for Pharmacology and Toxicology, Aachen, Germany) and affinity purified on glutathione-agarose. […] ATP in a final volume of 30 μl. After 30 min incubation at 30°C, 25 μl aliquots of supernatant were treated as described above.

CDK1/cyclin B = CDK1/cyclin B kinase assay (histone H1, P81 phosphocellulose); format: biochemical, starfish (Marthasterias glacialis); conditions: 15 μM ATP; cell '− (x)' = no inhibitory activity detected, x = highest concentration tested
Experimental: ATP (3,000 Ci/mmol; 1 mCi/ml) in a final volume of 30 μl. […] The wet filters were counted in the presence of 1 ml ACS (Amersham) scintillation fluid.

CDK5/p25 = CDK5/p25 (Homo sapiens, UniProt Q00535); experiment: CDK5/p25 kinase assay (histone H1)
Experimental: as §1
Its activity was assayed with histone H1 in buffer C as described for CDK1/cyclin B.

[1] = tested on: human neuroblastoma SH-SY5Y cells; experiment: SH-SY5Y cell survival, MTS reduction assay; format: cell-based; conditions: MTS assay, dose-response after 24 h and 48 h exposure, cell '− (x)' = no activity, x = highest concentration tested, read-out: IC50 SH-SY5Y cell survival
Experimental: We next tested the effects of each lamellarin, at an initial 10 μM concentration, on the survival of the neuroblastoma SH-SY5Y cell line after 48 h exposure (Table 2). Cell survival was estimated by the MTS reduction assay.
SH-SY5Y human neuroblastoma cells were grown in DMEM supplemented with 2mM L-glutamine (Invitrogen, Cergy Pontoise, France), plus antibiotics (penicillin-streptomycin) and a 10% volume of fetal calf serum (FCS) (Invitrogen). Cell viability was determined by means of the MTS (3- (4,5-dimethylthiazol-2-yl)-5- (3-carboxymethoxyphenyl)-2- (4-sulfophenyl)-2H -tetrazolium) reduction method as previously described. Cell death was (also) assayed by LDH release. Lactate dehydrogenase is a stable cytosolic enzyme that is released upon cell lysis. SH-SY5Y cells were also subjected to caspase activity assays. These are based on cleavage of a synthetic caspase substrate DEVD (MP Biomedicals, 199423), a subtrate of active caspase 3/6/7. The assay was carried out according to manufacturer’s instructions.

[2] = 15 μM ATP, cell '− (x)' = no inhibitory activity detected, x = highest concentration tested

Sequence of CDK5/p25 (Q00535 whole entry): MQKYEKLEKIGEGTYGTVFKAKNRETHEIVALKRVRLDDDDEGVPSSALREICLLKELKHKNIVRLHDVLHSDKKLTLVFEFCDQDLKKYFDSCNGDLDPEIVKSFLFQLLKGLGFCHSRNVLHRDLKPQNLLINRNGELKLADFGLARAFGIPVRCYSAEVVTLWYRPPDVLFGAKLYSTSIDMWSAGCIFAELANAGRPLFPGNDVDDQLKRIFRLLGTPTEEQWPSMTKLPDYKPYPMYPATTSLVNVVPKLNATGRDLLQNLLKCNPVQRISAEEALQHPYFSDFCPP
Sequence of CDK5/p25 (Q15078 99-307 partner limits assumed): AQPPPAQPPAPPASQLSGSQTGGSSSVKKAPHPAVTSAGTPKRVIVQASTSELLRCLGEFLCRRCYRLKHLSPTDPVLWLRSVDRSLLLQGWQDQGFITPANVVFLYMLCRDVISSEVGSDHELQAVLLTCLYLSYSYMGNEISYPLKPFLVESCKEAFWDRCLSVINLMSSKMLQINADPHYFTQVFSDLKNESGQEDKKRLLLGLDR
Sequence of PIM 1 (P11309 whole entry, species assumed): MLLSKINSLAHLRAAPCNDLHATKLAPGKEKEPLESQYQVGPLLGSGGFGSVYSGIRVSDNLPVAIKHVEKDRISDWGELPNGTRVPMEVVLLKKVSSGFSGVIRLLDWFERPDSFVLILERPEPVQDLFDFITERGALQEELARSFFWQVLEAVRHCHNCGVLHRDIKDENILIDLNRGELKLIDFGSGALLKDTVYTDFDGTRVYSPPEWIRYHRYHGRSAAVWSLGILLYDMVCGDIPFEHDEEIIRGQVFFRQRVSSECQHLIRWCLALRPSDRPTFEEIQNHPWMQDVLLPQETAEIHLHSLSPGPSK

Structure (SMILES) | IC50 (PIM 1) [nM] | IC50 (CK1; [2]) [nM] | IC50 (HeLa cells) [nM] | IC50 (GSK-3α/ß) [nM] | IC50 (DYRK1A) [nM] | IC50 (CDK1/cyclin B) [nM] | IC50 (CDK5/p25) [nM] | IC50 [1] [nM] | IC50 (CK1) [nM]
COc1ccc(-c2c3c4cc5c(cc4oc(=O)c3n3ccc4cc(OC)c(OC)cc4c23)OCO5)cc1OC [Compound 17, lamellarin 12] | > 10000 | > 10000 | > 100000 | > 10000 | > 10000 | > 10000 | > 10000 | > 10000 | 
O=c1oc2cc(O)c(O)cc2c2c(-c3ccc(O)c(O)c3)c3n(c12)CCc1cc(O)c(O)cc1-3 [Compound 5, di-H-lamellarin H] | > 10000 | 5200 |  | 670 | > 10000 | > 10000 | > 10000 | 2550 | 
COc1cccc(-c2c3c4cc(OC)c(O)cc4oc(=O)c3n3ccc4cc(O)c(OC)cc4c23)c1 [Compound 13, lamellarin 7] | > 10000 | > 10000 | 70 | 2100 | > 10000 | 4300 | 2100 | 140 | 
COc1ccc(-c2c3n(c4c(=O)oc5cc(O)c(OC)cc5c24)CCc2cc(O)c(OC)cc2-3)cc1O [Compound 7, lamellarin L] | 250 | > 10000 |  | 41 | 140 | 380 | 100 | 700 | 
COc1ccc2oc(=O)c3c(c(-c4ccc(O)c(OC)c4)c4c5cc(OC)c(O)cc5ccn43)c2c1 [Compound 10, lamellarin 4] | 50 | 1300 | 850 | 50 | 80 | 2000 | 600 | 790 | 
COc1cc(-c2c3c4ccc(O)cc4oc(=O)c3n3ccc4cc(O)c(OC)cc4c23)ccc1O [Compound 9, lamellarin 3] | 150 | 410 | 40 | 580 | 60 | 530 | 600 | 56 | 
O=c1oc2ccccc2c2c(-c3ccc(O)c(O)c3)c3c4cc(O)c(O)cc4ccn3c12 [Compound 15, lamellarin 9] | > 10000 | > 10000 | 1100 | > 10000 | > 10000 | > 10000 | > 10000 | > 10000 | 
COc1cc2c(cc1O)oc(=O)c1c2c(-c2ccc(O)cc2)c2c3cc(OC)c(O)cc3ccn21 [Compound 12, lamellarin 6] | 330 | 800 | 40 | 130 | 90 | 100 | 30 | 110 | 
COc1cc2c(cc1O)oc(=O)c1c2c(-c2ccc(OC)c(OC)c2)c2c3cc(OC)c(OC)cc3ccn21 [Compound 11, lamellarin 5] | 2000 | > 10000 | 2500 | > 10000 | > 10000 | > 10000 | > 10000 | 8000 | 
COc1cc(-c2c3c4cc(OC)c(O)cc4oc(=O)c3n3ccc4cc(O)c(OC)cc4c23)ccc1O [Compound 1, lamellarin D] | 100 |  | 11 | 300 | 450 | 500 | 550 | 19 | 13000
COc1cc(-c2c3c4ccccc4oc(=O)c3n3ccc4cc(O)c(OC)cc4c23)ccc1O [Compound 14, lamellarin 8] | 700 | > 10000 | 4000 | 2200 | 1000 | 5000 | 900 | 2650 | 
COc1cc(-c2c3n(c4c(=O)oc5cc(O)c(OC)cc5c24)CCc2c-3cc(OC)c(OC)c2O)ccc1O [Compound 22, lamellarin K] | 600 | 6000 |  | > 10000 | > 10000 | > 10000 | > 10000 | > 30000 | 
COc1cc(-c2c3n(c4c(=O)oc5cc(O)c(OC)cc5c24)CCc2cc(O)c(OC)cc2-3)ccc1O [Compound 3, di-H-lamellarin D] | 200 | 5900 |  | 900 | 500 | 1850 | 110 | 410 | 
O=c1oc2cc(O)c(O)cc2c2c(-c3ccc(O)c(O)c3)c3c4cc(O)c(O)cc4ccn3c12 [Compound 4, lamellarin H] | > 10000 | 5300 | > 100000 | 9500 | > 10000 | > 10000 | > 10000 | 450 | 
COc1ccc(-c2c3c4ccccc4oc(=O)c3n3ccc4cc(OC)c(OC)cc4c23)cc1OC [Compound 16, lamellarin 11] | > 10000 | > 10000 | 5700 | > 10000 | > 10000 | > 10000 | > 10000 | > 10000 | 
COc1cc(-c2c3c4cc(OC)c(O)cc4oc(=O)c3n3ccc4cc(OC)c(OC)cc4c23)ccc1O [Compound 2, lamellarin α] | 590 | 7900 |  | 1400 | 5000 | 8000 | > 10000 | > 10000 | 
